Data published in PubChem BioAssay AID1259411 (Chemical Carcinogenesis Research Information System (CCRIS), 2018).
Calls of active or inactive are those of the source. The rule behind the calls is not given here.

Test system: rodent carcinogenicity bioassays, tumor incidence
Assay: CCRIS carcinogenicity studies
Summary of the method: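 NCI-built, expert-reviewed records of carcinogenicity and related test outcomes (mutagenicity, tumor promotion/inhibition) compiled from published and report sources, historical span 1985-2011, not updated.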

For `CC(C)(c1ccc(O)cc1)c1ccc(O)cc1` (tested in a mixture with another compound), the carcinogen call (Species: MOUSE, Strain/Sex: CF-1/FEMALE, Route: DERMAL, Dose: 0, 1, 10% EPIKOTE 828 IN ACETONE (TOTAL DOSE 0.2 ML) 2/WK APPLIED TO DORSAL SKIN FOR DURATION OF STUDY (STUDY DURATION:, Dose: 0, 1, 10% EPIKOTE 828 IN ACETONE (TOTAL DOSE 0.2 ML) 2/WK APPLIED TO DORSAL SKIN FOR DURATION OF STUDY (STUDY DURATION:, Tumor Site: Type of Lesion: HEMATOPOIETIC SYSTEM: RETICULUM-CELL SARCOMA, LYMPHOBLASTIC LYMPHOSARCOMA) was “active; positive”, the carcinogen call (Species: MOUSE, Strain/Sex: CF-1/FEMALE, Route: DERMAL, Dose: 0, 1, 10% EPON 828 IN ACETONE (TOTAL DOSE 0.2 ML) 2/WK APPLIED TO DORSAL SKIN FOR DURATION OF STUDY (STUDY DURATION: 2 Y, Dose: 0, 1, 10% EPON 828 IN ACETONE (TOTAL DOSE 0.2 ML) 2/WK APPLIED TO DORSAL SKIN FOR DURATION OF STUDY (STUDY DURATION: 2 Y) was “inactive; negative” and the carcinogen call (Species: MOUSE, Strain/Sex: CF-1/MALE, Route: DERMAL, Dose: 0, 1, 10% EPIKOTE 828 IN ACETONE (TOTAL DOSE 0.2 ML) 2/WK APPLIED TO DORSAL SKIN FOR DURATION OF STUDY (STUDY DURATION:, Dose: 0, 1, 10% EPIKOTE 828 IN ACETONE (TOTAL DOSE 0.2 ML) 2/WK APPLIED TO DORSAL SKIN FOR DURATION OF STUDY (STUDY DURATION:) was “inactive; negative”. The carcinogen call (Species: MOUSE, Strain/Sex: CF-1/MALE, Route: DERMAL, Dose: 0, 1, 10% EPON 828 IN ACETONE (TOTAL DOSE 0.2 ML) 2/WK APPLIED TO DORSAL SKIN FOR DURATION OF STUDY (STUDY DURATION: 2 Y, Dose: 0, 1, 10% EPON 828 IN ACETONE (TOTAL DOSE 0.2 ML) 2/WK APPLIED TO DORSAL SKIN FOR DURATION OF STUDY (STUDY DURATION: 2 Y) was “inactive; negative”.
In the case of `CC1(c2ccc(Oc3ccccc3)cc2)OC(=O)N(Nc2ccccc2)C1=O` (stereo not drawn), the carcinogen call (Species: Mouse, Strain/Sex: CRL: CD1 (ICR)BR/Female (60/Group), Route: Oral, Dose: 0, 1.0, 9.8, 130, 392 mg/kg/day of 97.4% famoxadone in diet for 18 mo, study duration 18 mo, Dose: 0, 1.0, 9.8, 130, 392 mg/kg/day of 97.4% famoxadone in diet for 18 mo, study duration 18 mo) is reported as “inactive; negative”, the carcinogen call (Species: Mouse, Strain/Sex: CRL: CD1 (ICR)BR/Male (60/Group), Route: Oral, Dose: 0, 0.7, 6.8, 96, 274 mg/kg/day of 97.4% famoxadone in diet for 18 mo, study duration 18 mo, Dose: 0, 0.7, 6.8, 96, 274 mg/kg/day of 97.4% famoxadone in diet for 18 mo, study duration 18 mo) is reported as “inactive; negative” and the carcinogen call (Species: Rat, Strain/Sex: CRL: CD BR/Female (62/Group), Route: Oral, Dose: 0, 0.53, 2.15, 10.7, 23.0 mg/kg/day of 97.4% famoxadone in diet for 24 mo, study duration 24 mo, Dose: 0, 0.53, 2.15, 10.7, 23.0 mg/kg/day of 97.4% famoxadone in diet for 24 mo, study duration 24 mo) is reported as “inactive; negative”. For the same compound, the carcinogen call (Species: Rat, Strain/Sex: CRL: CD BR/Male (62/Group), Route: Oral, Dose: 0, 0.42, 1.62, 8.4, 16.8 mg/kg/day of 97.4% famoxadone in diet for 23 mo, study duration 23 mo, Dose: 0, 0.42, 1.62, 8.4, 16.8 mg/kg/day of 97.4% famoxadone in diet for 23 mo, study duration 23 mo) was “inactive; negative”.
With `Cc1c(N(C)C)c(=O)n(-c2ccccc2)n1C` the carcinogen call (Species: MOUSE, Strain/Sex: B6C3F1/FEMALE, Route: ORAL, Dose: 0, 0.04, 0.08% IN DRINKING WATER FOR 100 WK (STUDY DURATION: 104 WK), Dose: 0, 0.04, 0.08% IN DRINKING WATER FOR 100 WK (STUDY DURATION: 104 WK)) was “inactive; negative” and the carcinogen call (Species: MOUSE, Strain/Sex: B6C3F1/MALE, Route: ORAL, Dose: 0, 0.04, 0.08% IN DRINKING WATER FOR 100 WK (STUDY DURATION: 104 WK), Dose: 0, 0.04, 0.08% IN DRINKING WATER FOR 100 WK (STUDY DURATION: 104 WK)) was “inactive; negative”.
With `N[C@@H](CC(=O)O)C(=O)O` the carcinogen call (Species: RAT, Strain/Sex: F344/FEMALE, Route: ORAL, Dose: 0, 2.5, 5% IN DRINKING WATER FOR 100 WK (STUDY DURATION: 100 WK), Dose: 0, 2.5, 5% IN DRINKING WATER FOR 100 WK (STUDY DURATION: 100 WK)) was “inactive; negative” and the carcinogen call (Species: RAT, Strain/Sex: F344/MALE, Route: ORAL, Dose: 0, 2.5, 5% IN DRINKING WATER FOR 100 WK (STUDY DURATION: 100 WK), Dose: 0, 2.5, 5% IN DRINKING WATER FOR 100 WK (STUDY DURATION: 100 WK)) was “inactive; negative”.
`OCc1c2ccccc2cc2c1ccc1ccccc12` was tested, and the carcinogen call (Species: RAT, Strain/Sex: SPRAGUE-DAWLEY/FEMALE, Route: SUBCUTANEOUS, Dose: 0, 0.2 UMOL IN SESAME OIL:DMSO (9:1) 3/WK FOR 20 DOSES (STUDY DURATION: 52 WK), Tumor Site: Type of Lesion: INJECTION SITE: SARCOMA) was “active; positive”.
In the case of `CCN=[N+]([O-])CC`, the carcinogen call (Species: RAT, Route: ORAL, Tumor Site: Type of Lesion: LIVER: HEMANGIOENDOTHELIOMA) is reported as “active; positive”, the carcinogen call (Species: RAT, Route: SUBCUTANEOUS, Tumor Site: Type of Lesion: MAMMARY GLAND, BRAIN (OLFACTORY BULB): NEUROBLASTOMA, BRAIN: GLIOMA HEMATOPOIETIC SYSTEM (LEUKEMIA), Tumor Site: Type of Lesion: MAMMARY GLAND, BRAIN (OLFACTORY BULB): NEUROBLASTOMA, BRAIN: GLIOMA HEMATOPOIETIC SYSTEM (LEUKEMIA)) is reported as “active; positive” and the carcinogen call (Species: RAT, Strain/Sex: F344/MALE, Route: ORAL, Dose: 0, 14, 55 MG/ML IN A NEUTRAL DEIONIZED DRINKING WATER SOLUTION 5 D/WK FOR 30 WK (TOTAL DOSE 42; 132 MG) (STUDY DURATION:, Dose: 0, 14, 55 MG/ML IN A NEUTRAL DEIONIZED DRINKING WATER SOLUTION 5 D/WK FOR 30 WK (TOTAL DOSE 42; 132 MG) (STUDY DURATION:, Tumor Site: Type of Lesion: LIVER: CARCINOMA, HEMANGIOSARCOMA, ESOPHAGUS: TUMOR, NASAL CAVITY: SQUAMOUS CELL CARCINOMA, ADENOCARCINOMA, Tumor Site: Type of Lesion: LIVER: CARCINOMA, HEMANGIOSARCOMA, ESOPHAGUS: TUMOR, NASAL CAVITY: SQUAMOUS CELL CARCINOMA, ADENOCARCINOMA) is reported as “active; positive”.
In the case of `CC(C)[N+](=O)[O-]`, the carcinogen call (Species: RAT, Route: INHALATION, Tumor Site: Type of Lesion: LIVER) is reported as “active; positive”.
For `CN(N=O)C1CCCCC1`, the carcinogen call (Species: HAMSTER, Strain/Sex: SYRIAN/FEMALE, Route: GAVAGE, Dose: 0, 2.5 MG/KG 1/WK FOR 50 WK (TOTAL DOSE: 0; 0.9 MMOL) (STUDY DURATION: LIFETIME), Dose: 0, 2.5 MG/KG 1/WK FOR 50 WK (TOTAL DOSE: 0; 0.9 MMOL) (STUDY DURATION: LIFETIME)) was “inactive; negative” and the carcinogen call (Species: HAMSTER, Strain/Sex: SYRIAN/MALE, Route: GAVAGE, Dose: 0, 2.5 MG/KG 1/WK FOR 50 WK (TOTAL DOSE: 0; 0.9 MMOL) (STUDY DURATION: LIFETIME), Dose: 0, 2.5 MG/KG 1/WK FOR 50 WK (TOTAL DOSE: 0; 0.9 MMOL) (STUDY DURATION: LIFETIME), Tumor Site: Type of Lesion: LUNG: ALVEOLAR/BRONCHIAL ADENOMA, ADENOSQUAMOUS CARCINOMA) was “active; positive”.
With `O=NN(c1ccccc1)c1ccccc1` the carcinogen call (Species: MOUSE, Strain/Sex: B6C3F1/FEMALE, Route: ORAL, Dose: 0, 2315, 5741 PPM IN DIET, TWA, Dose: 0, 2315, 5741 PPM IN DIET, TWA) was “inactive; negative”, the carcinogen call (Species: MOUSE, Strain/Sex: B6C3F1/MALE, Route: ORAL, Dose: 0, 10000, 20000 PPM IN DIET, Dose: 0, 10000, 20000 PPM IN DIET) was “inactive; negative” and the carcinogen call (Species: RAT, Strain/Sex: F344/FEMALE, Route: ORAL, Dose: 0, 1000, 4000 PPM IN DIET, Dose: 0, 1000, 4000 PPM IN DIET, Tumor Site: Type of Lesion: URINARY BLADDER: TRANSITIONAL CELL CARCINOMA) was “active; positive”. For the same compound, the carcinogen call (Species: RAT, Strain/Sex: F344/MALE, Route: ORAL, Dose: 0, 1000, 4000 PPM IN DIET, Dose: 0, 1000, 4000 PPM IN DIET, Tumor Site: Type of Lesion: INTEGUMENTARY SYSTEM: FIBROMA, URINARY BLADDER: TRANSITIONAL CELL CARCINOMA) was “active; positive”.
